Reference: patent publication US6559151B2, “6-(2-trifluoromethyl-phenyl)-triazolopyrimidines” (BASF Aktiengesellschaft, priority 2000, dated 2003)
Values after ≈ are worked out from the molar mass of the structure shown.

Assays:
Type in all cases: cell-based
Alternaria solani = experiment: MIC serial dilution test, Alternaria solani; conditions: V8 juice medium, 6-12 days at 18-25° C., visual
Botrytis cinerea = experiment: MIC serial dilution test, Botrytis cinerea; conditions: V8 juice medium, 6-12 days at 18-25° C., visual
Cochliobulus sativus = experiment: MIC serial dilution test, Cochliobulus sativus; conditions: V8 juice medium, 6-12 days at 18-25° C., visual
[1] = test system: Magnaporthe grisea f. sp. Oryzae; conditions: total inhibition of mycelial growth; V8 juice medium; 6-12 days at 18-25° C.; visual
Rhizoctonia solani = experiment: In vitro fungicidal activity against Rhizoctonia solani (mycelial growth inhibition rating); design: key: 0: None; 3: slight; 5: moderate; 7: severe; 9: complete; conditions: 25 ppm; 24-cell-well plates; 3-7 days of incubation
Method: C Evaluation of In vitro Fungicidal Activity against Rhizoctonia solani Test compounds are dissolved in acetone to give a concentration of 25 ppm and added to individual cell walls (24-cell-well-plates, Corning), which were previously filled with a suspension of ground fungal mycelium in a chemically defined growth medium. After 3-7 days of incubation, inhibition of mycelial growth is recorded using the following scale: The data obtained are shown in Table IV. Rating scale [table]

In the case of `CC(C)Nc1c(-c2cc(F)ccc2C(F)(F)F)c(Cl)nc2ncnn12` [Compound I-1, [5-chloro-6-(5-fluoro-2-trifluoromethyl-phenyl)-[1,2,4]triazolo[1,5-α]pyrimidin-7-yl]-isopropyl-amine], the “MIC (Minimum Inhibitory Concentration) ALTEBO” value (Alternaria solani) is reported as 100 µg/mL (≈ 268 µM), the “MIC (Minimum Inhibitory Concentration) BOTRCI” value (Botrytis cinerea) is reported as 50 µg/mL (≈ 134 µM) and the “MIC (Minimum Inhibitory Concentration) COCHSA” value (Cochliobulus sativus) is reported as 25 µg/mL (≈ 66.9 µM). For the same compound, the “MIC (Minimum Inhibitory Concentration) PYRIOR” value [1] was 1.56 µg/mL (≈ 4.17 µM) and the “Rating (inhibition of mycelial growth)” value (Rhizoctonia solani) was 7.

In the case of `Fc1ccc(C(F)(F)F)c(-c2c(Cl)nc3ncnn3c2NC2CCCC2)c1` [Compound I-2, [5-chloro-6-(5-fluoro-2-trifluoromethyl-phenyl)-[1,2,4]triazolo[1,5-α]pyrimidin-7-yl]-cyclopentyl-amine], the “MIC (Minimum Inhibitory Concentration) ALTEBO” value (Alternaria solani) is reported as 3.13 µg/mL (≈ 7.83 µM), the “MIC (Minimum Inhibitory Concentration) BOTRCI” value (Botrytis cinerea) is reported as 25 µg/mL (≈ 62.5 µM) and the “MIC (Minimum Inhibitory Concentration) COCHSA” value (Cochliobulus sativus) is reported as 3.13 µg/mL (≈ 7.83 µM). For the same compound, the “MIC (Minimum Inhibitory Concentration) PYRIOR” value [1] was 0.78 µg/mL (≈ 1.95 µM) and the “Rating (inhibition of mycelial growth)” value (Rhizoctonia solani) was 7.

With `Fc1ccc(C(F)(F)F)c(-c2c(Cl)nc3ncnn3c2NC2CC3CCC2C3)c1` (centres unmarked) [Compound I-3] the “MIC (Minimum Inhibitory Concentration) ALTEBO” value (Alternaria solani) was 0.78 µg/mL (≈ 1.83 µM), the “MIC (Minimum Inhibitory Concentration) BOTRCI” value (Botrytis cinerea) was 25 µg/mL (≈ 58.7 µM) and the “MIC (Minimum Inhibitory Concentration) COCHSA” value (Cochliobulus sativus) was 6.25 µg/mL (≈ 14.7 µM). For the same compound, the “MIC (Minimum Inhibitory Concentration) PYRIOR” value [1] was 12.5 µg/mL (≈ 29.4 µM) and the “Rating (inhibition of mycelial growth)” value (Rhizoctonia solani) was 5.

In the case of `CCN(CC)c1c(-c2cc(F)ccc2C(F)(F)F)c(Cl)nc2ncnn12` [Compound I-4, N-[5-chloro-6-(5-fluoro-2-trifluoromethyl-phenyl)-[1,2,4]triazolo[1,5-α]pyrimidin-7-yl]-N,N-diethyl-amine], the “MIC (Minimum Inhibitory Concentration) ALTEBO” value (Alternaria solani) is reported as over 100 µg/mL, the “MIC (Minimum Inhibitory Concentration) BOTRCI” value (Botrytis cinerea) is reported as 25 µg/mL (≈ 64.5 µM) and the “MIC (Minimum Inhibitory Concentration) COCHSA” value (Cochliobulus sativus) is reported as 12.5 µg/mL (≈ 32.2 µM). For the same compound, the “MIC (Minimum Inhibitory Concentration) PYRIOR” value [1] was 0.78 µg/mL (≈ 2.01 µM) and the “Rating (inhibition of mycelial growth)” value (Rhizoctonia solani) was 7.

In the case of `CCC(C)Nc1c(-c2cc(F)ccc2C(F)(F)F)c(Cl)nc2ncnn12` (stereo not drawn) [Compound I-5, [5-chloro-6-(5-fluoro-2-trifluoromethyl-phenyl)-[1,2,4]triazolo[1,5-α]pyrimidin-7-yl]-N-(1-methyl-propyl)-amine], the “MIC (Minimum Inhibitory Concentration) ALTEBO” value (Alternaria solani) is reported as 6.25 µg/mL (≈ 16.1 µM), the “MIC (Minimum Inhibitory Concentration) BOTRCI” value (Botrytis cinerea) is reported as 12.5 µg/mL (≈ 32.2 µM) and the “MIC (Minimum Inhibitory Concentration) COCHSA” value (Cochliobulus sativus) is reported as 12.5 µg/mL (≈ 32.2 µM). For the same compound, the “MIC (Minimum Inhibitory Concentration) PYRIOR” value [1] was 0.78 µg/mL (≈ 2.01 µM) and the “Rating (inhibition of mycelial growth)” value (Rhizoctonia solani) was 7.

In the case of `Fc1ccc(C(F)(F)F)c(-c2c(Cl)nc3ncnn3c2NCC(F)(F)F)c1` [Compound I-6], the “Rating (inhibition of mycelial growth)” value (Rhizoctonia solani) is reported as 7.

In the case of `Nc1c(-c2cc(F)ccc2C(F)(F)F)c(Cl)nc2ncnn12` [Compound I-7], the “Rating (inhibition of mycelial growth)” value (Rhizoctonia solani) is reported as 0.

`CC1CCN(c2c(-c3cc(F)ccc3C(F)(F)F)c(Cl)nc3ncnn23)CC1` [Example 5, 5-Chloro-6-(5-fluoro-2-trifluorome-thylphenyl)-7-(4-methyl-piperidin-1-yl)-[1,2,4]triazolo[1,5-α]pyrimidine] was tested, and the “MIC (Minimum Inhibitory Concentration) ALTEBO” value (Alternaria solani) was 0.2 µg/mL (≈ 0.483 µM), the “MIC (Minimum Inhibitory Concentration) BOTRCI” value (Botrytis cinerea) was 0,78 μg/ml and the “MIC (Minimum Inhibitory Concentration) COCHSA” value (Cochliobulus sativus) was 0.78 µg/mL (≈ 1.88 µM). The “MIC (Minimum Inhibitory Concentration) PYRIOR” value [1] was under 0.05 µg/mL and the “Rating (inhibition of mycelial growth)” value (Rhizoctonia solani) was 7.
